# According to patent US8114594B2, “Crude biological derivatives competent for nucleic acid detection” (Applied Biosysyems, LLC, priority 2004, dated 2012):
# Tested on: not given
# Test: not given
# Details: cited from earlier work
row,SMILES,pKa
1,"Cc1cc(C)c(C)c(C(=O)O)c1C [2,3,5,6-tetramethylbenzoic acid]",3.5
2,"Cc1cc(C)c(C(=O)O)c(C)c1 [2,4,6-trimethylbenzoic acid]",3.4
3,CC(C)(N)C(=O)O [2-amino-2-methylpropionic acid],2.4
4,CCC(C)C(N)C(=O)O (stereo not drawn) [2-amino-3-methylpentanoic acid],2.3
5,Nc1ccccc1S(=O)(=O)O [2-aminobenzenesulfonic acid],2.5
6,CCCC(N)C(=O)O (stereo not drawn) [2-aminopentanoic acid],2.3
7,CC(C)(C#N)C(=O)O [2-cyano-2-methylpropionic acid],2.4
8,CCC(CC)C(=O)O [2-ethylbutyric acid],4.8
9,O=C(O)c1ccco1 [2-furancarboxylic acid],3.2
10,O=C(O)c1c(O)ccc2ccccc12 [2-hydroxy-1-naphthoic acid],3.3
11,Nc1cccc(S(=O)(=O)O)c1 [3-aminobenzenesulfonic acid],3.7
12,O=C(O)c1cccc(Br)c1 [3-bromobenzoic acid],3.8
13,CC(C)(C)c1cccc(C(=O)O)c1 [3-tert-butylbenzoic acid],4.2
14,Nc1ccc(S(=O)(=O)O)cc1 [4-aminobenzenesulfonic acid],3.2
15,O=C(O)c1ccc([N+](=O)[O-])cc1 [4-nitrobenzoic acid],3.4
16,CC(=O)N[C@@H](C)C(=O)O [N-acetylalanine],3.7
17,CC(=O)NCC(=O)O [N-acetylglycine],3.7
18,C[C@H](NC(N)=O)C(=O)O [N-carbamoylalanine],3.9
19,CCC(=O)NCC(=O)O [N-propionylglycine],3.7
20,O=C(O)C#CCl [chloropropynoic acid],1.85
21,N#CCC(=O)O [cyanoacetic acid],2.5
22,CC[C@H](C)[C@H](N)C(=O)O [isoleucine],2.3
23,CC(C)C(C(=O)O)C(=O)O [isopropylmalonic acid],2.4
24,CC(=O)NCCC(=O)O [β-acetylaminopropionic acid],4.4

# Tested on: tissue plasminogen activator (t-PA)
# Test: Monitoring drug treatment: t-PA mRNA by one step real-time RT-PCR from HeLa cell lysate
# Assay type: cell-based, human
# Details: lysate 40 cells/μl, PMA 1 nM, 24 hours
# Procedure: HeLa cells were seeded DME media with 10% FBS in each of three wells in a 12-well tissue culture plate (Nalge Nunc International, Cat. #150628) at 125,000 cells/well. After an overnight incubation, phorbol myristate acetate (PMA) was added to final concentrations of 10, 1 and 0 nM in the growth medium. The cells were incubated at 37° C. for 24 hours. The medium was removed and the cells washed with PBS. The cells were incubated with 0.05% trypsin in 0.53 mM EDTA for 10 minutes at 37° C. to detach the cells. Cells were counted and concentration was determined. Cells were centrifuged at 800×g for 5 minutes. The medium was removed and the cells were washed once with PBS. Each cell pellet was suspended in PBS to obtain a stock solution of 10000 cells/μl. A five-fold serial dilution of the stock solution with PBS was carried out to give 10000, 2000 and 400 cells/0.10 μl of each dilution was added to 90 μl of Buffer at room temperature such that the final cell concentrations in the lysate were 1000, 200 and 40 cells/μl. The samples were gently shaken at room temperature (˜21° C.) for 1 to 2 min. As in EXAMPLE 1, cell lysate of 30% of the final reaction volume was added to a one step real-time RT-PCR reaction with primers and TaqMan probe for tissue plasminogen activator (t-PA) and 18S rRNA (EXAMPLE 8). The t-PA primer and probe sequences were as follows: Forward primer, 5′-[…]-3′ (SEQ ID NO. 34); Reverse primer, 5′-[…]-3′ (SEQ ID NO. 35); TaqMan Probe: 5′-(FAM)-[…]-(TAMRA)-3′ (SEQ ID NO. 36).
row,SMILES,t-PA (fold increase compared to 0 nM PMA)
1,"CCCCCCCCCCCCCC(=O)O[C@@H]1[C@@H](C)[C@@]2(O)[C@@H](C=C(CO)C[C@]3(O)C(=O)C(C)=C[C@@H]23)[C@@H]2C(C)(C)[C@]12OC(C)=O [PMA, phorbol myristate acetate]",16 fold

# Same assay, conditions: lysate 40 cells/μl, PMA 10 nM, 24 hours
row,SMILES,t-PA (fold increase compared to 0 nM PMA)
1,"CCCCCCCCCCCCCC(=O)O[C@@H]1[C@@H](C)[C@@]2(O)[C@@H](C=C(CO)C[C@]3(O)C(=O)C(C)=C[C@@H]23)[C@@H]2C(C)(C)[C@]12OC(C)=O [PMA, phorbol myristate acetate]",147 fold

# Same assay, conditions: lysate 200 cells/μl, PMA 1 nM, 24 hours
row,SMILES,t-PA (fold increase compared to 0 nM PMA)
1,"CCCCCCCCCCCCCC(=O)O[C@@H]1[C@@H](C)[C@@]2(O)[C@@H](C=C(CO)C[C@]3(O)C(=O)C(C)=C[C@@H]23)[C@@H]2C(C)(C)[C@]12OC(C)=O [PMA, phorbol myristate acetate]",9 fold

# Same assay, conditions: lysate 200 cells/μl, PMA 10 nM, 24 hours
row,SMILES,t-PA (fold increase compared to 0 nM PMA)
1,"CCCCCCCCCCCCCC(=O)O[C@@H]1[C@@H](C)[C@@]2(O)[C@@H](C=C(CO)C[C@]3(O)C(=O)C(C)=C[C@@H]23)[C@@H]2C(C)(C)[C@]12OC(C)=O [PMA, phorbol myristate acetate]",62 fold

# Same assay, conditions: lysate 1000 cells/μl, PMA 1 nM, 24 hours
row,SMILES,t-PA (fold increase compared to 0 nM PMA)
1,"CCCCCCCCCCCCCC(=O)O[C@@H]1[C@@H](C)[C@@]2(O)[C@@H](C=C(CO)C[C@]3(O)C(=O)C(C)=C[C@@H]23)[C@@H]2C(C)(C)[C@]12OC(C)=O [PMA, phorbol myristate acetate]",8 fold

# Same assay, conditions: lysate 1000 cells/μl, PMA 10 nM, 24 hours
row,SMILES,t-PA (fold increase compared to 0 nM PMA)
1,"CCCCCCCCCCCCCC(=O)O[C@@H]1[C@@H](C)[C@@]2(O)[C@@H](C=C(CO)C[C@]3(O)C(=O)C(C)=C[C@@H]23)[C@@H]2C(C)(C)[C@]12OC(C)=O [PMA, phorbol myristate acetate]",39 fold
